As a reminder, the inhibition is the percentage by which the read-out fell short of the control. A low value points to little suppression.

The assay concerns Nucleic Acid. In words: The compound was tested for its ability to inhibit the incorporation of tritiated thymidine into mammalian epithelial cells (DNA) at 30 uM dose. It counts as cell-based. As to conditions: Epithelial cell.
Regarding `CCCOP(=O)(OC[C@H]1OC(n2ccc(N)nc2=O)[C@@H](O)[C@@H]1O)OCC(Cl)(Cl)Cl` (stereo partly drawn), the inhibition came out at 40%.

Regarding `CCCCNP(=O)(OC[C@H]1OC(n2ccc(N)nc2=O)[C@@H](O)[C@@H]1O)OCC(Cl)(Cl)Cl` (stereo partly drawn), the inhibition came to 48%.

`COP(=O)(OC[C@H]1OC(n2ccc(N)nc2=O)[C@@H](O)[C@@H]1O)OCC(Cl)(Cl)Cl` (stereo partly drawn): the inhibition is 22%.

In the case of `Nc1ccn(C2O[C@H](COP(=O)(OCC(Cl)(Cl)Cl)OCC(Cl)(Cl)Cl)[C@@H](O)[C@@H]2O)c(=O)n1` (stereo partly drawn), the inhibition was 91%.

With `CCOP(=O)(OC[C@H]1OC(n2ccc(N)nc2=O)[C@@H](O)[C@@H]1O)OCC(Cl)(Cl)Cl` (single isomer, unassigned; form 1), the inhibition is 31%.

For `CCCNP(=O)(OC[C@H]1OC(n2ccc(N)nc2=O)[C@@H](O)[C@@H]1O)OCC(Cl)(Cl)Cl` (stereo partly drawn), the inhibition came out at 45%.

In turn, `Nc1ccn([C@@H]2O[C@H](CO)[C@@H](O)[C@@H]2O)c(=O)n1` registered an inhibition of 83%.

As for `CCOP(=O)(OC[C@H]1OC(n2ccc(N)nc2=O)[C@@H](O)[C@@H]1O)OCC(Cl)(Cl)Cl` (single isomer, unassigned; form 2), the inhibition came out at 30%.

The values above are taken from ChEMBL document CHEMBL1125851, “Trans-esterification reactions yield novel masked phosphate derivatives of the anti-cancer agent araC” (Bioorg Med Chem Lett, 1991).
